From a melting point compilation (Tetko et al.; mined from patent text by program, amines drawn as free bases though some values may be those of a salt) come the findings set out here.

Molecules are shown by their SMILES. Some results are limits rather than exact numbers.

As usually defined, the melting point is the temperature, or range, at which the solid turns liquid. Regarding `COCOc1c(OC)cc(C(=O)C(=O)O)c2cccc(Cc3ccccc3)c12`, the melting point lay within 75 to 79 °C.

Regarding `O=C(NCc1ccccn1)c1ccc(C=Cc2ccccc2OCc2ccccc2)cc1`, the melting point lay within 123 to 127 °C.

Turning to `CC(C)(C)C(=O)c1c[nH]c2ncc(-c3cccc(OCc4ccccc4)c3)nc12`, the melting point lay in the range of 184 to 185 °C.

As for `CN1CCC(N2C(=O)c3ccccc3Oc3ccccc32)CC1`, the melting point is 173 to 174 °C.

`COc1cccc(N(c2ccccc2)c2ccc(-c3ccc(N(c4ccccc4)c4cccc(OC)c4)cc3)cc2)c1`: the melting point fell in the range of 120 to 125 °C.

As to `N#CC1=C(c2cccs2)Nc2n[nH]cc2C1c1ccccc1[N+](=O)[O-]` (configuration not stated), the melting point was 165 °C.

For `Nc1cnccc1C(=O)Nc1ccc(-n2nc(C(F)(F)F)cc2C(F)(F)F)cc1`, the melting point fell in the range of 101 to 102 °C.

Compound `O=C(c1nc2ccc(O)cc2[nH]1)N1CCC(=Cc2ccc(F)cc2)CC1` returned a melting point of 105 to 106 °C.

`CN(C)c1cccc(OC(=O)NC2C(=O)N(CCC3C4CC5CC(C4)CC3C5)c3ccccc3N(c3ccccc3)C2=O)c1` (configuration not stated) registered a melting point of 188 to 189 °C.

For the compound `Nc1nc2ccc(Cl)nc2c(=O)[nH]1`, the melting point was above 330 °C.

As for `COC(=O)CCC(=O)Nc1cccc2c1C(=O)N(C1CCC(=O)NC1=O)C2=O` (configuration not stated), the melting point lay within 224 to 226 °C.

Take `NCCNS(=O)(=O)c1cc(NC(=O)c2cnn3c(C(F)(F)F)cc(-c4ccc(C(F)(F)F)cc4)nc23)c(Cl)s1`: the melting point worked out at 195 °C.

As for `CCOC(=O)C1Cc2c([nH]c3ccccc23)C(c2ccc(N(C)C)cc2)N1` (configuration not stated), the melting point turned out to be 170 °C.

For `Cc1scnc1-c1cc(C(C)(C)C)c(O)c(C(C)(C)C)c1`, the melting point was 128 to 130 °C.

Consider `N#CCc1cc(=O)c(OCc2ccccc2)cn1Cc1ccccc1`, for which the melting point was 175 to 180 °C.

Compound `Cc1ncc(C=CC=CC(=O)O)s1` yielded a melting point of 220 to 222 °C.

As to `CCOP(=O)(CCCOc1ccc2c(c1)c(CC(N)=O)c(C)n2Cc1ccccc1)OCC`, the melting point lay in the range of 106 to 111 °C.

Consider `Cc1cc(Cl)cc2c1OCC(/C=C/C=C/C=C/C(=O)O)=C2`, for which the melting point was 208 to 210 °C.

`O=C(O)c1ccn(-c2ccc(C(=O)O)c(Cl)c2)n1` had a melting point of 260 to 263 °C.

Compound `FC(F)(F)c1cc(OCc2ccc(-c3ccccc3-c3nnn[nH]3)cc2)c2c(n1)CCCC2` yielded a melting point of 218 to 219 °C.

The compound `NC(=S)c1cc(Oc2ccc(C(F)(F)F)cc2Cl)ccc1[N+](=O)[O-]` had a melting point of 152 °C.

In turn, `CCOC(=O)CC(c1cccnc1)N1CCN(CCCOc2ccc(C#N)cc2)C(=O)C1=O` (configuration not stated) gave a melting point of 110 to 112 °C.

`O=C1CCCN1[C@H]1CC[C@@H](C(=O)O)CC1`: the melting point is 188 °C.

For `CC(C)(C)C(=O)C=C(c1ccc(Cl)cc1)S(=O)(=O)c1ccccc1`, the melting point was 135 to 136 °C.

`COc1ccc(N2CCN(c3ccc(N4C(=O)N(C(C)C(C)=O)C(C)(C)C4=O)cc3)CC2)cc1` (configuration not stated) showed a melting point of 226 °C.

In turn, `O=C1CN(c2cccc(OCc3ccc(F)cc3)c2)NC(=O)N1` returned a melting point of 73 to 75 °C.

As for `CCOc1cc2c(c(OC(C)=O)c1OCC)=NC(=O)C(=O)N=2`, the melting point fell in the range of 321 to 322 °C.

The compound `CS(=O)(=O)c1ccc(-c2ccc3cnc(Nc4ccc(N5CCOCC5)nc4)nn23)cc1` registered a melting point of 171 to 177 °C.

For the compound `COc1ccc(-c2[nH]c3ccccc3c(=O)c2Cc2ccncc2)cc1`, the melting point was 246 to 248 °C.

On to `CCCc1ccc(C(=O)Nc2ccc3c(c2)nc(C)n3C)cc1`, for which the melting point is 214 to 218 °C.

As to `Cc1ncc(CN2CC=C(CCc3ccccc3)CC2)c(N)n1`, the melting point was 152 to 154 °C.

The compound `COc1ccc2c3c(cn2S(=O)(=O)c2ccc(C)cc2)CC(NC(=O)C(F)(F)F)C(=O)c13` (configuration not stated) yielded a melting point of 189 to 190 °C.

`CCN(CC)CCOc1cccc2c1c1cc(Cl)ccc1n2Cc1ccc(F)cc1` yielded a melting point of 99 to 99.5 °C.

Regarding `CCCCCCCCCCCCc1c[nH]c(C(=O)O)c1`, the melting point fell in the range of 152 to 153 °C.

For `COC(=O)c1cc(OC)c(OC)c2c1C=CCO2`, the melting point was 88.5 to 90 °C.

As for `Cc1c(Cl)c(Cl)c(Cl)c(Cl)c1C=O`, the melting point fell in the range of 187 to 194 °C.

For `CC=CCSc1cc(C(=O)O)cc([N+](=O)[O-])c1-c1ccccc1`, the melting point lay in the range of 138 to 140 °C.

For the compound `CN(C)C=CC(=O)c1ccc(Cl)cc1`, the melting point was 78.5 to 80.5 °C.

For `Cc1cccc2c1NC(=O)C(CCCN1CCN(c3cccc(F)c3)CC1)S2` (configuration not stated), the melting point lay within 132 to 134 °C.

`Cc1c(-c2ccccc2)n(-c2ccccc2Cl)c(-c2ccccc2)cc1=O` had a melting point of 228 to 231 °C.

Take `Cn1nc(N)nc1NCCCOc1cccc2c(N3CCOCC3)nccc12`: the melting point is 178 to 180 °C.

For `COc1cc2c(Cl)c(C#N)cnc2cc1OS(=O)(=O)C(F)(F)F`, the melting point fell in the range of 112 to 113 °C.

As to `C[C@@H](CO)Oc1cc(Oc2ccc(C(=O)N3CCC3)cc2F)cc(C(=O)Nc2ccn(C)n2)c1`, the melting point was found to be 142 °C.

`CN1c2ccc(C=C(c3ccccc3)c3ccccc3)cc2Sc2cc(C=C(c3ccccc3)c3ccccc3)ccc21` returned a melting point of 233 to 241 °C.

`O=C(O)c1cn(-c2cccc(Br)c2)cn1` came in with a melting point of 205 to 207 °C.

The compound `NC(=O)N1C(=O)Cc2cc(NC(=O)c3ccccc3)ccc21` came in with a melting point of 223 to 226 °C.

In turn, `CC(C)n1c(=O)c2ccccc2n(SC(Cl)(Cl)Cl)c1=O` showed a melting point of 105 to 106 °C.

Compound `CC(=O)N1CCSc2cccc(Cl)c2C1` registered a melting point of 79 to 81 °C.

Consider `Cc1ccc(-c2ccc3c(c2)C=C(C(=O)NC2CCN(CC4=CCCCCCCC4)CC2)CCO3)cc1`, for which the melting point fell in the range of 128 to 130 °C.

In the case of `O=C(/C=C/C=C/c1ccccc1)NCCSCCC(=O)NO`, the melting point lay within 158 to 160 °C.

With `COc1ccc2c(c1)c(C#N)cn2C`, the melting point fell in the range of 100 to 104 °C.

The compound `O=C(O)COc1ccc2cc(CNC(=O)c3cc(-c4ccc(Cl)cc4)oc3C(F)(F)F)ccc2c1` gave a melting point of 194 to 196 °C.

On to `CCCC1=C(C(=O)OCC)C(c2ccnc3ccccc23)c2c[nH]nc2N1` (configuration not stated), for which the melting point was 198 °C.

In turn, `Cc1ccc2nc(Cl)nc(NN)c2c1` had a melting point above 280 °C.

`COc1ccc(N2C(=O)C(N=[N+]=[N-])C2c2ccc(C(=O)O)cc2)cc1` (configuration not stated) yielded a melting point of 190 °C.

In turn, `CNC(NCCNCc1ccc(CN(C(C)C)C(C)C)o1)=C(C#N)C#N` displayed a melting point of 79 to 80 °C.

The compound `CC(C)CC(NC(=O)Cc1ccc(NC(=O)Nc2ccccc2F)cc1)c1ncc(CCC(=O)O)s1` (configuration not stated) displayed a melting point of 83 to 85 °C.

As to `CCOC(=O)c1cnc(CCOC)nc1NCc1ccc(-c2ccccc2-c2nnn[nH]2)cc1`, the melting point was in the range of 122 to 124 °C.

`Cn1c(COc2ccc(CC3SC(=O)NC3=O)cc2)nc2ccccc21` (configuration not stated) showed a melting point of 230 to 231 °C.

Compound `CCOC(=O)c1cn(-c2nc(NC)c(F)cc2F)c2c(Cl)c(F)c(F)cc2c1=O` returned a melting point of 207 to 209 °C.

Compound `CCOc1ccc(C2=NN(C3CCN(C(=O)CCl)CC3)C(=O)[C@@H]3CC=CC[C@H]23)cc1OCC` yielded a melting point of 135 to 136 °C.

The compound `Cc1oc(-c2ccco2)nc1COc1ccc(COc2nn(Cc3ccc(OCc4nc(-c5ccco5)oc4C)cc3)cc2CO)cc1` gave a melting point of 80 to 81 °C.

Take `CC(C)C1Cc2cc(OCC(=O)O)c(Cl)c(Cl)c2C1=O` (configuration not stated): the melting point lay within 161 to 164 °C.

The compound `CC(C)(CC(O)(C(=O)Nc1ccccc1)C(F)(F)F)c1cc(F)ccc1O` (configuration not stated) had a melting point of 124 to 126 °C.

`CCn1c(-c2ccc(C(F)(F)F)cc2C(F)(F)F)nc(-c2ccncc2)c1-c1ccc(Cl)cc1` returned a melting point of 148 to 150 °C.

`CC(C)c1ccc2c(c1)c(=O)[nH]c1c2c2ccccc2n1C` showed a melting point of 315 to 325 °C.

The compound `CC(C)C[C@H](NC(=O)[C@H](Cc1c[nH]cn1)NC(=O)[C@H](Cc1ccccc1)NC(=O)OCc1ccccc1)[C@H](O)CO` gave a melting point of 159 to 162 °C.

`COc1cccc(CCC(=O)O)c1C` came in with a melting point of 143 to 147 °C.

The compound `CNC1(CC2CCCCC2)C(=O)Nc2ccc(Cl)cc21` (configuration not stated) registered a melting point of 168 to 169 °C.

The compound `CS(=O)(=O)NC1(c2ccc(I)cc2)CC1` came in with a melting point of 101 to 102 °C.

The compound `CC(=O)CCc1ccc(-c2ccccc2)cc1` came in with a melting point of 76 to 77 °C.

In turn, `C=CCc1c(OC(C)=O)ccc2c(C)cc(=O)oc12` yielded a melting point of 98.8 to 99.8 °C.

Turning to `c1ccc(-c2ccc3c(c2)CCN(Cc2c[nH]c4ncccc24)C3)cc1`, the melting point lay within 211 to 213 °C.

In turn, `CCCCS(=O)(=O)NCCc1nc(-c2ccc(-c3ccccc3)cc2)c[nH]1` registered a melting point of 168 °C.

As to `COc1ccc2c(C(=O)O)cc3cc(OC)c(OC)cc3c2c1`, the melting point was in the range of 241 to 243 °C.

In turn, `OCC1CC(n2c(Cl)nc3cc(Cl)c(Cl)cc32)C(O)C1O` (configuration not stated) yielded a melting point of 206 to 210 °C.

Consider `O=C1c2ccc(F)cc2C(=O)N1CC(=O)N1c2ccccc2N(Cc2ccccc2)C(=O)[C@H]2CCC[C@H]21` (relative stereo), for which the melting point is 235 to 236 °C.

Compound `CSc1nc(Cl)ncc1C` gave a melting point of 73 to 76 °C.

As to `CCN1CCCC1CNC(=O)c1cc(OCC(F)(F)F)ccc1OCC(F)(F)F` (configuration not stated), the melting point lay in the range of 78 to 80 °C.

Consider `CCCCC(F)c1cc(=O)[nH]cn1` (configuration not stated), for which the melting point was 148 °C.

Turning to `CCCCCCCCCCCCCCOc1ccc(NC(=O)Nc2cccc(CCBr)c2)cc1`, the melting point was 164 to 169 °C.

With `CCN(CC)CCN(C)CCC1CCCCN1C(=O)N1c2ccccc2NC(=O)c2csc(C)c21` (configuration not stated), the melting point fell in the range of 131 to 133 °C.

For `Cc1c(Cc2ccc(C(C)C)cc2)c2c(c(C)c1NC(=O)CC(C)(C)C)CC(C)(C)O2`, the melting point was in the range of 170 to 171 °C.

Turning to `O=C(NC1CN(C(=O)Nc2ccc(OC(F)(F)F)c(Cl)c2)N=C1c1ccc(Br)cc1)c1ccc(Cl)cc1` (configuration not stated), the melting point was above 200 °C.

The compound `O=C(N[C@@H]1CCc2ccccc21)C(F)(F)F` had a melting point of 152 to 153 °C.

As to `COc1ccc(-c2ccsc2)c2c1c(CCN(C)C)cn2C`, the melting point fell in the range of 120 to 122 °C.

Regarding `Cc1cc(N=C2NCCN2)cc(NS(C)(=O)=O)c1`, the melting point lay in the range of 54 to 77 °C.
